# Experimental data published in US8029980B2, “Identification and use of agents that modulate oncogenic transcription agent activity” (The Board of Trustees of the University of Illinois, priority 2006, dated 2011).
# What was measured:
# FoxM1 = target: T1, FoxM1 (Homo sapiens, UniProt Q08050); experiment: FoxM1 immunoprecipitation and MPM2 immunoblot for phospho-FoxM1 in C3-Luc cells; type: cell-based; conditions: 100 μM, 8 hrs
# T1 construct: endogenous in cells; host or cells: C3-Luc (U2OS)
# T1 sequence (Q08050 1-763): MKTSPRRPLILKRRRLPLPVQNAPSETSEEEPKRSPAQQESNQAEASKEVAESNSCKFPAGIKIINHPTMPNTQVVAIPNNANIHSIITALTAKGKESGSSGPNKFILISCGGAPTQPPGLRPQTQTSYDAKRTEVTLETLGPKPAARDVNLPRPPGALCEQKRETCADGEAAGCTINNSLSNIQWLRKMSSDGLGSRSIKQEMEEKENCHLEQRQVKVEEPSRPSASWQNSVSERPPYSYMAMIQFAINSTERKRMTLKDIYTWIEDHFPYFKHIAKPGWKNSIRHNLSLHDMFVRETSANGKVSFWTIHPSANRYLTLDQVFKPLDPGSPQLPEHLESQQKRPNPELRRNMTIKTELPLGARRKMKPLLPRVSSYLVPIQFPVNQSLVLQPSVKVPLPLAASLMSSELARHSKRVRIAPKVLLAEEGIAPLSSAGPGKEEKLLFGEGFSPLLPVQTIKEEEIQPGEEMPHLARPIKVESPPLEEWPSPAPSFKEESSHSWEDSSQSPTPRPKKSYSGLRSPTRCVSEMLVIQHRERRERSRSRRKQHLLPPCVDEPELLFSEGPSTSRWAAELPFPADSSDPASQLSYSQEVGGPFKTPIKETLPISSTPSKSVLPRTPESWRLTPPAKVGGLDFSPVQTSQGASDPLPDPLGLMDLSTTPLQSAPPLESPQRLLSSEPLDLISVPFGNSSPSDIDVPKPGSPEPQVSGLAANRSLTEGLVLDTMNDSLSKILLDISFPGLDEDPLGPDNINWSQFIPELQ
# Method: (§1) Immunoblotting was performed as described (18-20) with antibodies specific for p21 (556431; BD Pharmingen), survivin (sc-10811; Santa Cruz), cleaved caspase-3 (9664; Cell Signaling), and β-actin (A5441; Sigma) antibodies. Immunoblot for FoxM1 was done using the previously generated rabbit antisera (2), and phospho-FoxM1 was detected using the MPM2 monoclonal antibody (Upstate Biotechnology) which recognizes the phosphorylated protein sequence phosphoserine/phosphothreonine-proline.
# For the immunoprecipitation experiment, FoxM1 antisera (2) was used along with protein A-sepharose to pull down FoxM1 protein, which was resolved on an SDS-PAGE gel and transferred to PVDF membrane. The total and phospho-FoxM1 levels were determined by using the antibodies described above.
# Based on this observation, we hypothesized that Siomycin A may inhibit FoxM1 transcriptional activity by blocking this phosphorylation event. In order to test this hypothesis, we treated C3-Luc cells with DMSO (control) or 100 μM of Siomycin A for 8 hrs and immunoprecipitated FoxM1 from the lysates. We then analyzed these samples for phospho-FoxM1 levels by immunoblotting with MPM2, a monoclonal antibody that recognizes phosphorylated Cdk1 and Cdk2 sites.
# C3-Luc cells = experiment: Soft agar assay (anchorage-independent growth); type: cell-based, human; conditions: 10 μM, 1 μg/mL doxycycline, 4 weeks
# Method: The assay was done as described previously (21, 22). Briefly C3-Luc cells were plated subconfluently in six-well plates in 0.7% agarose on a 1.4% agarose bed in the presence or absence of 10 μM of Siomycin A and 1 μg/mL of doxycycline. Three times a week, the tissue-culture medium containing these agents was replaced. After 4 weeks, cell colonies that were larger than 1 mm in size were scored.
# [1] = system: SV40-transformed MRC-5 human fetal lung fibroblasts; experiment: Apoptosis assay (DAPI staining, caspase-3 and survivin immunoblot) in transformed fibroblasts; type: cell-based; conditions: SV40-transformed cells
# Method: (§2) FIG. 4. Anti-cancer properties of Siomycin A. (A) Representative photographs from soft agar experiment as described in Example 1 are shown. (B) Number of colonies in the soft agar were quantitated and plotted in the form of bar graphs. (C) Wild type and SV40-transformed MRC-5 human fetal lung fibroblasts were treated with indicated concentrations of Siomycin A for 48 hrs. Photographs from phase contrast microscopy (top panel) and fluorescent microscopy after DAPI staining (bottom panel) are shown. (D) Apoptotic nuclei from normal and SV40-transformed MRC-5 fibroblasts treated with indicated concentrations of Siomycin A for 24 hrs were scored after DAPI staining and percentage cell death (mean±sd; n=3) is shown. (E) Wild type and SV40-transformed MRC-5 fibroblasts were treated with Siomycin A as indicated for 48 hrs and the cell lysates were used for immunoblotting and probed for levels of survivin and cleaved caspase-3.
# as §1
# (§3) Apoptosis was detected by DAPI (4′,6-diamidino-2-phenylindole) staining. All treatments were done in triplicates in 6-well plates and cells were stained with DAPI and visualized by fluorescent microscopy. Four random fields for each sample were photographed and at least 500 cells per field were counted to estimate apoptosis. The data is represented as mean±sd.
# [2] = system: Wild type MRC-5 human fetal lung fibroblasts; experiment: Apoptosis assay (DAPI staining, caspase-3 and survivin immunoblot) in normal fibroblasts; type: cell-based
# Method: as §2, §1, §3
# [3] = system: Liver cancer cell lines Huh7, Hep-3B and SK-Hep; experiment: FoxM1 and cleaved caspase-3 immunoblot in liver cancer cell lines; type: cell-based, human; conditions: 10 μM, 48 hrs
# Method: FIG. 9. […] Liver cancer cell lines Huh7, Hep-3B and SK-Hep were treated with 10 μM Siomycin A and thiostrepton, respectively, for 48 hrs, and the cell lysates were analyzed for the levels of FoxM1 and cleaved caspase-3 by immunoblotting.
# as §1
# First, we treated liver cancer cell lines Huh7, Hep-3B and SK-Hep that have deleted or mutant p53 with these compounds for 48 hrs, and the cell lysates were analyzed for the levels of FoxM1 and cleaved caspase-3 by immunoblotting.
# [4] = system: NB7 and NB7-casp8 neuroblastoma cells; experiment: FoxM1 and cleaved caspase-3 immunoblot in neuroblastoma cells; type: cell-based; conditions: 24 hrs
# Method: FIG. 11. […] Cells were treated with Siomycin A, thiostrepton or DMSO, harvested 24 hrs later and the lysates were used to determine proteins levels by immunoblotting with antibodies specific for FoxM1, cleaved caspase-3 and β-actin (AS441, Sigma).
# [5] = system: human breast cancer MDA-MB-231 cell line; conditions: earlier report (ref. 26); cited from earlier work
# [6] = normal cells, 48 hrs, immunoblot
smiles,measurement,setting,value
C=C(NC(=O)C(=C)NC(=O)c1csc(C2=N[C@@H]3c4csc(n4)[C@H]4NC(=O)c5csc(n5)[C@H]([C@](C)(O)[C@@H](C)O)NC(=O)[C@H]5CSC(=N5)/C(=C/C)NC(=O)[C@H]([C@@H](C)O)NC(=O)c5csc(n5)[C@]3(CC2)NC(=O)[C@H](C)NC(=O)C(=C)NC(=O)C(=C)NC(=O)[C@H](C(C)C)N[C@@H]2C=Cc3c([C@H](C)O)cc(nc3[C@H]2O)C(=O)O[C@@H]4C)n1)C(N)=O [Siomycin A],phospho-FoxM1 levels,FoxM1,decrease in phospho-FoxM1
same,total FoxM1 levels,FoxM1,only marginally reduced
same,anchorage-independent growth (number of colonies on soft agar),C3-Luc cells,dramatically reduced the anchorage-independent growth to less than basal untreated value
same,cleavage of caspase-3,"[1]; 48 hrs, immunoblot",showed cleavage of caspase-3
same,survivin levels,"[1]; 48 hrs, immunoblot",effectively repress survivin levels
same,apoptosis / cell death,[1]; forty-eight hours after treatment,dose dependent apoptosis
same,cleavage of caspase-3,[2]; [6],but not normal cells showed cleavage of caspase-3
same,survivin levels,[2]; [6],effectively repress survivin levels
same,apoptosis / cell death,"[2]; untransformed normal cells, forty-eight hours after treatment",did not exhibit significant cell death
same,FoxM1 protein expression,[3],repress FoxM1 protein expression
same,apoptosis (cleaved caspase-3),[3],induce apoptosis
same,apoptosis (cleaved caspase-3),[4]; NB7 and NB7 with reconstituted caspase-8,induce apoptosis in these neuroblastoma cells independently from caspase-8
same,FoxM1 protein expression,[4]; immunoblot,inhibit FoxM1 protein expression
same,pro-apoptotic activity in screen,[5],identified in a screen for pro-apoptotic compounds
